Measurements as given in patent publication US11091479B2, “Triazolopyridin-3-ones or their salts and pharmaceutical compositions comprising the same” (YUHAN CORPORATION, priority 2018, dated 2021).
Counter-ions that a name gives are not always drawn.

Legend:
Format in all cases: biochemical
recombinant human VAP-1 = biological target: T1, recombinant human VAP-1 (Homo sapiens, UniProt Q16853); assay: Activity on recombinant human VAP-1, HRP-coupled Amplex Red hydrogen peroxide assay, benzylamine substrate; settings: 30 min incubation at 37° C., 1 mM benzylamine, read-out: Inhibitory Activity (IC50, nM) human VAP-1
T1 construct: purchased R&D systems
T1 sequence (Q16853 1-763): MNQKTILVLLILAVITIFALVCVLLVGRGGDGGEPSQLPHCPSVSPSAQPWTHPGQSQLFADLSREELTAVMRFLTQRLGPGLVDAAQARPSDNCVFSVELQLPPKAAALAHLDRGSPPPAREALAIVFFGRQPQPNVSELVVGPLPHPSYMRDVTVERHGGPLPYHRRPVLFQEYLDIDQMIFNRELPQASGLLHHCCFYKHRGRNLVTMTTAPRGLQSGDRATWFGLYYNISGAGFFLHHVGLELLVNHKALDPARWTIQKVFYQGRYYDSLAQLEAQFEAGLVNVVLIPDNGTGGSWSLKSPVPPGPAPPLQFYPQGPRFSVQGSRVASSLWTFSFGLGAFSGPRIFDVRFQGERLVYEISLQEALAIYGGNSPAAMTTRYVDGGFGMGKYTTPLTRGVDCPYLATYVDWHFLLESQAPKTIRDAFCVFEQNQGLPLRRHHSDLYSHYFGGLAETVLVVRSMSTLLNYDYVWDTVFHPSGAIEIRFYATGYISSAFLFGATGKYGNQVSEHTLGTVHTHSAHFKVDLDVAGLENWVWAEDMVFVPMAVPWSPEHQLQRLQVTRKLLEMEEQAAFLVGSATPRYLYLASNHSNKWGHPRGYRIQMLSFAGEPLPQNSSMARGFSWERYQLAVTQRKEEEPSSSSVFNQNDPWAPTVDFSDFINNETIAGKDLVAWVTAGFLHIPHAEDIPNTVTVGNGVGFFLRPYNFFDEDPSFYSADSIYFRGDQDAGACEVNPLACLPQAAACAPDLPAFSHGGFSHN
Summary of the method: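 Recombinant human VAP-1 in 50 mM sodium phosphate pH 7.4 preincubated with compound for 30 min at 37 °C, then 1 mM benzylamine, 200 uM Amplex Red and 1 U/mL HRP added. Resorufin fluorescence (ex 544/em 590 nm) followed over 1-2 h; % signal-rate decrease vs DMSO control, 8-point 4-parameter fit for IC50.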

[1] = biological target: T2, recombinant human MAO-B (monoamine oxidase-B) (Homo sapiens, UniProt P27338); assay: Activity on recombinant human MAO-B, method similar to VAP-1 assay, 1 mM benzylamine substrate; settings: read-out: Inhibitory Activity (IC50, nM) MAO-B
T2 construct: purchased Sigma-Aldrich
T2 sequence (P27338 1-520): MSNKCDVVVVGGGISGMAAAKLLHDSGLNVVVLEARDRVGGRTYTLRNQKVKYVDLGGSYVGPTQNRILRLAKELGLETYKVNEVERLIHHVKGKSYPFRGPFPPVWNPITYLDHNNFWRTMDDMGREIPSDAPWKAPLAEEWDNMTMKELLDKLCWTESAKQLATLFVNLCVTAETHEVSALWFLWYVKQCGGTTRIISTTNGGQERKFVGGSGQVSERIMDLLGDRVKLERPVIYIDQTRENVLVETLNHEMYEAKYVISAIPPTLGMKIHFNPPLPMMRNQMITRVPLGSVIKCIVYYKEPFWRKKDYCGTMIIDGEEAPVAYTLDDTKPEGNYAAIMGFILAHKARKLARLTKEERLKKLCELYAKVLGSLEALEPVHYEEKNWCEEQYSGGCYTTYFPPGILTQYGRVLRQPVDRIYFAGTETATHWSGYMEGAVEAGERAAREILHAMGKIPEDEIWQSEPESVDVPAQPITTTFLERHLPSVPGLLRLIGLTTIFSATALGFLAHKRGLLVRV
Summary of the method: (§1)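 Amplex Red/HRP-coupled H2O2 fluorescence assay run as for VAP-1: enzyme in 50 mM sodium phosphate pH 7.4 preincubated with compound 30 min at 37 °C, then substrate (putrescine for DAO, benzylamine for MAO-B, tyramine for MAO-A) added with 200 uM Amplex Red, 1 U/mL HRP. Signal rate over 1-2 h; IC50 from 4-parameter logistic fit.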

[2] = biological target: T3, recombinant human MAO-A (monoamine oxidase-A) (Homo sapiens, UniProt P21397); assay: Activity on recombinant human MAO-A, method similar to VAP-1 assay, 0.5 mM tyramine substrate; settings: read-out: Inhibitory Activity (IC50, nM) MAO-A
T3 construct: purchased Sigma-Aldrich
T3 sequence (P21397 1-527): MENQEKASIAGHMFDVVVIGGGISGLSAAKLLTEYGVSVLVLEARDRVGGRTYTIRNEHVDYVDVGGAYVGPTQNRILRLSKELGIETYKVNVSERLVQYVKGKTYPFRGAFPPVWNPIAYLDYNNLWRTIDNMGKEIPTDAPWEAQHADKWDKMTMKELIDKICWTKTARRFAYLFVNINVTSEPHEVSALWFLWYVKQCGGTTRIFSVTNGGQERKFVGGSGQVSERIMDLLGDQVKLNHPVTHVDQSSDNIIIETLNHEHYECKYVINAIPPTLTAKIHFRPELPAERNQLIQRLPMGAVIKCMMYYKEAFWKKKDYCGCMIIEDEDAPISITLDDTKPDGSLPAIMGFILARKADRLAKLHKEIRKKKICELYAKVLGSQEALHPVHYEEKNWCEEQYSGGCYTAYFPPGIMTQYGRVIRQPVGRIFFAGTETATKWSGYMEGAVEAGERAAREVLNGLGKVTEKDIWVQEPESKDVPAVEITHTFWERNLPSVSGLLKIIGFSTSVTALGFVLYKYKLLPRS
Summary of the method: as §1

[3] = biological target: T4, recombinant human DAO (diamine oxidase) (Homo sapiens, UniProt P19801); assay: Activity on recombinant human DAO, method similar to VAP-1 assay, 1 mM putrescine substrate; settings: read-out: Inhibitory Activity (IC50, nM) DAO
T4 construct: purchased R&D systems
T4 sequence (P19801 20-751): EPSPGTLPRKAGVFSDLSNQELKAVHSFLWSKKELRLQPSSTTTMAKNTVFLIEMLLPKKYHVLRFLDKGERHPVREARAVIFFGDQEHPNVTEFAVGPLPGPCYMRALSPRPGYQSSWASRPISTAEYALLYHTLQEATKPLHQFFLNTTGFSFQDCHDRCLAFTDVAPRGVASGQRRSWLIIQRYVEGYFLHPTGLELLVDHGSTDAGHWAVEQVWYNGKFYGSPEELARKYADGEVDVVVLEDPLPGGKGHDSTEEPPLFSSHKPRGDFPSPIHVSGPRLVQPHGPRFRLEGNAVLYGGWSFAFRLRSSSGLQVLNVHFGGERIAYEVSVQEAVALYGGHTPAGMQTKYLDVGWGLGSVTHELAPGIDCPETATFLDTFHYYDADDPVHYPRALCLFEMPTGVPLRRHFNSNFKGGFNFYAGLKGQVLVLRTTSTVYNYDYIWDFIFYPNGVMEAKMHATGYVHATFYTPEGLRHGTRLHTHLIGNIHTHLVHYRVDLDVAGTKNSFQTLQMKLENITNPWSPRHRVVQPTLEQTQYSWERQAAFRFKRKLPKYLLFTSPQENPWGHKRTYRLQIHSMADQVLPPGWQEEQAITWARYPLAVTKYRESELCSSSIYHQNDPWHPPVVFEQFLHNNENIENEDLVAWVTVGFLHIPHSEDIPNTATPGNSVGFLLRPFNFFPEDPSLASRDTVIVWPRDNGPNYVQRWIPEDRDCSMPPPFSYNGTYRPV
Summary of the method: as §1

| IC50 (recombinant human VAP-1) | IC50 [1] | IC50 [2] | IC50 [3] | Compound |
| --- | --- | --- | --- | --- |
| 0.3 nM | 37 nM | > 100000 nM | 160 nM | NCC(Cn1nc2cc(-c3ccc4c(c3)OCO4)ccn2c1=O)=C(F)F [Example 52, 2-[2-(aminomethyl)-3,3-difluoro-allyl]-7-(1,3-benzodioxol-5-yl)-[1,2,4]triazolo[4,3-a]pyridin-3-one trifluoroacetate] |
| 0.2 nM | < 10 nM | > 100000 nM | 1.9 nM | NC/C(=C\F)Cn1nc2cc(-c3cccc(-c4cc[nH]n4)c3)ccn2c1=O [Example 26, 2-[(2E)-2-(aminomethyl)-3-fluoroprop-2-en-1-yl]-7-[3-(1H-pyrazol-3-yl)phenyl][1,2,4]triazolo[4,3-a]pyridin-3(2H)-one hydrochloride] |
| 1.6 nM | 53000 nM | > 100000 nM | 390 nM | NCC(Cn1nc2cc(-c3ccc(N4CCNCC4)cc3)ccn2c1=O)=C(F)F [Example 49, 2-[2-(aminomethyl)-3,3-difluoro-allyl]-7-(4-piperazin-1-ylphenyl)-[1,2,4]triazolo[4,3-a]pyridin-3-one ditrifluoroacetate] |
